Experimental data reported in patent US20240150377A1, “MODULATORS OF CYSTIC FIBROSIS TRANSMEMBRANE CONDUCTANCE REGULATOR” (VERTEX PHARMACEUTICALS INCORPORATED, priority 2020, published 2024).

Target: T1, CFTR (Homo sapiens, UniProt P13569, DEL508-508)
T1 construct: endogenous in cells; host or cells: primary human bronchial epithelial cells from CF subjects (F508del/MF-HBE), differentiated at air-liquid interface
Experiment: HBE2 assay: Ussing chamber assay of CFTR-mediated short-circuit currents
Format: cell-based
Conditions: F508del/MF-HBE cells, with 44 nM potentiator, 18-24 hours, 20% human serum; for Emax: read-out: HBE2 Max activity (%)
How it was run: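 Corrector activity read as CFTR-dependent ISC (μA/cm^2): peak forskolin current minus post-inhibitor steady state. Measured at 37 °C, voltage clamp at 0 mV, on F508del/MF-HBE epithelia grown >14 days air-liquid interface in Ussing chambers.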

T1 sequence (P13569 with tags, fused parts or gaps DEL508-508): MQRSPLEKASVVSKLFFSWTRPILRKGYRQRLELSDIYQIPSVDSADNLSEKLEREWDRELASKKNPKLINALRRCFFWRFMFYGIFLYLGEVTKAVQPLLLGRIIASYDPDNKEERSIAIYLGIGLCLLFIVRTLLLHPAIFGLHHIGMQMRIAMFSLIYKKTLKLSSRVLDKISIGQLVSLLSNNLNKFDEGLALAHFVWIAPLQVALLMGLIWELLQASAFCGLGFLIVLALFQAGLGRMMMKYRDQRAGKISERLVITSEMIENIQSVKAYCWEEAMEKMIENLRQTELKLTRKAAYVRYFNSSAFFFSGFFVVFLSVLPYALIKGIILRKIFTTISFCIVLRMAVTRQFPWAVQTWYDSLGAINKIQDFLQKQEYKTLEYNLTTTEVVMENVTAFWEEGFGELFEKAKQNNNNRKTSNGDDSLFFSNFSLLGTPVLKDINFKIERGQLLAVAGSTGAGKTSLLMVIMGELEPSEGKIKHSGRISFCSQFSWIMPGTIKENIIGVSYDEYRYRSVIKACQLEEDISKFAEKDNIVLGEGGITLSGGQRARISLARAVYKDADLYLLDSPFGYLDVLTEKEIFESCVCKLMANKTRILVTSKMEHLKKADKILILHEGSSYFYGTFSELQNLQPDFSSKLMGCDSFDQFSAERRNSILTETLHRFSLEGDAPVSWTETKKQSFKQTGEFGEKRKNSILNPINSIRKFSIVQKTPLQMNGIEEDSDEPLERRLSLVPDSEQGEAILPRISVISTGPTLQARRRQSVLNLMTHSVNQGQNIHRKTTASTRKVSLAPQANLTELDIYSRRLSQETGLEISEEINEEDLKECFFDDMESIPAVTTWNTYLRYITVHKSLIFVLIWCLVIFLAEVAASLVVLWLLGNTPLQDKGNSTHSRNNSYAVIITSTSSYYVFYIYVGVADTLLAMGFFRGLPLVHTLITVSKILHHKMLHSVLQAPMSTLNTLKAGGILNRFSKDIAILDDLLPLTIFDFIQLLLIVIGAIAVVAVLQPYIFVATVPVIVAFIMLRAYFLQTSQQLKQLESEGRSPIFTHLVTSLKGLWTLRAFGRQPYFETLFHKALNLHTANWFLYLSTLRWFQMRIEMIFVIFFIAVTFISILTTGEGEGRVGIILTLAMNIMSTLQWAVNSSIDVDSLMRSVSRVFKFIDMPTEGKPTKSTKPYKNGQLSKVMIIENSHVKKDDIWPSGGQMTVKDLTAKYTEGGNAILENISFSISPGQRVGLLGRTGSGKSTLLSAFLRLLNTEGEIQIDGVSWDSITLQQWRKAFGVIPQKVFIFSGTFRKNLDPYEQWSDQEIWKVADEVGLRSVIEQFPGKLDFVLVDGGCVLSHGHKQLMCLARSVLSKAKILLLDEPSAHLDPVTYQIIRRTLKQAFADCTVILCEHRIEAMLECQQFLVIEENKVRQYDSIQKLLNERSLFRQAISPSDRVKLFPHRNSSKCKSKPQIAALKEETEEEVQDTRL

SMILES | HBE2 Activity at 3 μM (%) | EC50 [nM] | Emax [%]
Cc1cccc(C)c1-c1cc2nc(n1)NS(=O)(=O)c1cccc(c1)C(=O)N(Cc1ccc(N3CC(C)(C)C3)cn1)[C@H](CC(C)(C)C)CO2 [Compound 1655] | +++ (+++ is >60+) |  | 
CNC(=O)CC1CCCN1c1cncc(CN2C(=O)c3cccc(c3)S(=O)(=O)Nc3nc(cc(-c4c(C)cccc4C)n3)OC[C@H]2CC(C)(C)C)n1 (some centres unmarked) [Compound 1657] | +++ (+++ is >60+) |  | 
Cc1cccc(C)c1-c1cc2nc(n1)NS(=O)(=O)c1cccc(c1)C(=O)N(Cc1cncc(N3CCCC3CC(=O)N(C)C)n1)[C@H](CC(C)(C)C)CO2 (some centres unmarked) [Compound 1658] | +++ (+++ is >60+) |  | 
Cc1cccc(C)c1-c1cc2nc(n1)NS(=O)(=O)c1cccc(c1)C(=O)N(Cc1cncc(N3CCCC3C(=O)N(C)C)n1)[C@H](CC(C)(C)C)CO2 (some centres unmarked) [Compound 1660] | +++ (+++ is >60+) |  | 
CC(=O)N(C)CCN(C)c1cncc(CN2C(=O)c3cccc(c3)S(=O)(=O)Nc3nc(cc(-c4c(C)cccc4C)n3)OC[C@H]2CC(C)(C)C)n1 [Compound 1661] | +++ (+++ is >60+) |  | 
Cc1cccc(C)c1-c1cc2nc(n1)NS(=O)(=O)c1cccc(c1)C(=O)N(Cc1cncc(N(C)CCN(C)C(=O)OC(C)C)n1)[C@H](CC(C)(C)C)CO2 [Compound 1662] | +++ (+++ is >60+) |  | 
Cc1cccc(C)c1-c1cc2nc(n1)NS(=O)(=O)c1cccc(c1)C(=O)N(Cc1cncc(N(C)CCO)n1)[C@H](CC(C)(C)C)CO2 [Compound 1665] | +++ (+++ is >60+) |  | 
CNC(=O)OCCN(C)c1cncc(CN2C(=O)c3cccc(c3)S(=O)(=O)Nc3nc(cc(-c4c(C)cccc4C)n3)OC[C@H]2CC(C)(C)C)n1 [Compound 1666] | +++ (+++ is >60+) |  | 
Cc1cccc(C)c1-c1cc2nc(n1)NS(=O)(=O)c1cccc(c1)C(=O)N(Cc1cncc(N(C)CCOC(=O)N(C)C)n1)[C@H](CC(C)(C)C)CO2 [Compound 1667] | +++ (+++ is >60+) |  | 
Cc1cccc(C)c1-c1cc2nc(n1)NS(=O)(=O)c1cccc(c1)C(=O)N(Cc1cncc(N(C)C3CCC3)n1)[C@H](CC1(C)CC1)CO2 [Compound 1668] | +++ (+++ is >60+) | < 1000 | > 60
Cc1cccc(C)c1-c1cc2nc(n1)NS(=O)(=O)c1cccc(c1)C(=O)N(Cc1cncc(N(C)C3CCC3)n1)[C@H](CC1CCC1)CO2 [Compound 1669] | +++ (+++ is >60+) | < 1000 | > 60
Cc1cccc(C)c1-c1cc2nc(n1)NS(=O)(=O)c1cccc(c1)C(=O)N(Cc1cncc(N(C)C3CCC3)n1)[C@H](CC1CC1)CO2 [Compound 1670] | +++ (+++ is >60+) | < 1000 | > 60
Cc1cccc(C)c1-c1cc2nc(n1)NS(=O)(=O)c1cccc(c1)C(=O)N(Cc1cncc(N(C)C3CCC3)n1)[C@H](CC(C)C)CO2 [Compound 1671] | +++ (+++ is >60+) | < 1000 | > 60
CC[C@H](C)N(C)c1cncc(CN2C(=O)c3cccc(c3)S(=O)(=O)Nc3nc(cc(-c4c(C)cccc4C)n3)OC[C@H]2CC(C)(C)C)n1 [Compound 1673] | +++ (+++ is >60+) | < 1000 | > 60
Cc1cccc(C)c1-c1cc2nc(n1)NS(=O)(=O)c1cccc(c1)C(=O)N(Cc1cncc(N3C(=O)CC[C@H]3C)n1)[C@H](CC(C)(C)C)CO2 [Compound 1674] | +++ (+++ is >60+) |  | 
Cc1cccc(C)c1-c1cc2nc(n1)NS(=O)(=O)c1cccc(c1)C(=O)N(Cc1nc(N(C)C3CCC3)cnc1C)[C@H](CC(C)(C)C)CO2 [Compound 1678] | +++ (+++ is >60+) |  | 
Cc1cccc(C)c1-c1cc2nc(n1)NS(=O)(=O)c1cccc(c1)C(=O)N(Cc1cncc(N3CCC[C@@H]4COC[C@@H]43)n1)[C@H](CC(C)(C)C)CO2 [Compound 1680] | +++ (+++ is >60+) |  | 
COC(=O)N1CC2CCN(c3cncc(CN4C(=O)c5cccc(c5)S(=O)(=O)Nc5nc(cc(-c6c(C)cccc6C)n5)OC[C@H]4CC(C)(C)C)n3)C2C1 (some centres unmarked) [Compound 1681] | +++ (+++ is >60+) |  | 
Cc1cccc(C)c1-c1cc2nc(n1)NS(=O)(=O)c1cccc(c1)C(=O)N(Cc1cncc(N(C)C3CCC3)n1)[C@H](CC1CC3(CCC3)C1)CO2 [Compound 1682] | +++ (+++ is >60+) |  | 
Cc1cccc(C)c1-c1cc2nc(n1)NS(=O)(=O)c1cccc(c1)C(=O)N(Cc1cncc(N(C)C3CCC3)n1)[C@H](CC1(C)CCC1)CO2 [Compound 1683] | +++ (+++ is >60+) | < 1000 | > 60
Cc1cccc(C)c1-c1cc2nc(n1)NS(=O)(=O)c1cccc(c1)C(=O)N(Cc1cncc(N(C)C3CCC3)n1)[C@H](CCC1CC1)CO2 [Compound 1684] | +++ (+++ is >60+) | < 1000 | > 60
Cc1cccc(C)c1-c1cc2nc(n1)NS(=O)(=O)c1cccc(c1)C(=O)N(Cc1cncc(N(C)C3CCC3)n1)[C@H](CCC(C)C)CO2 [Compound 1685] | +++ (+++ is >60+) | < 1000 | > 60

SMILES | HBE2 Activity at 3 μM (%) | EC50 [nM] | Emax [%]
COC(=O)N(C)CCN(C)c1cncc(CN2C(=O)c3cccc(c3)S(=O)(=O)Nc3nc(cc(-c4c(C)cccc4C)n3)OC[C@H]2CC(C)(C)C)n1 [Compound 1686] | +++ (+++ is >60+) |  | 
Cc1cccc(C)c1-c1cc2nc(n1)NS(=O)(=O)c1cccc(c1)C(=O)N(Cc1cncc(N3CC4CC3C4)n1)[C@H](CC(C)(C)C)CO2 [Compound 1687] | +++ (+++ is >60+) |  | 
Cc1cccc(C)c1-c1cc2nc(n1)NS(=O)(=O)c1cccc(c1)C(=O)N(Cc1cncc(N(C)C3CCC3)n1)[C@H](CC1(C(F)(F)F)CC1)CO2 [Compound 1688] | +++ (+++ is >60+) | < 1000 | > 60
Cc1cccc(C)c1-c1cc2nc(n1)NS(=O)(=O)c1cccc(c1)C(=O)N(Cc1cncc(N(C)C3CCC3)n1)[C@H](CC(C)(C)C(F)(F)F)CO2 [Compound 1689] | +++ (+++ is >60+) | < 1000 | > 60
Cc1cccc(C)c1-c1cc2nc(n1)NS(=O)(=O)c1cccc(c1)C(=O)N(Cc1cncc(N(C)C3CCC3)n1)[C@H](C(C)C)CO2 [Compound 1690] | +++ (+++ is >60+) |  | 
Cc1cccc(C)c1-c1cc2nc(n1)NS(=O)(=O)c1cccc(c1)C(=O)N(Cc1cncc(N3CC4CC3(C)C4)n1)[C@H](CC(C)(C)C)CO2 [Compound 1691] | +++ (+++ is >60+) |  | 
Cc1cccc(C)c1-c1cc2nc(n1)NS(=O)(=O)c1cccc(c1)C(=O)N(Cc1cncc(N3CCOC4CCCC43)n1)[C@H](CC(C)(C)C)CO2 (some centres unmarked) [Compound 1692] | +++ (+++ is >60+) |  | 
COCCCN(C)c1cncc(CN2C(=O)c3cccc(c3)S(=O)(=O)Nc3nc(cc(-c4c(C)cccc4C)n3)OC[C@H]2CC(C)(C)C)n1 [Compound 1693] | +++ (+++ is >60+) |  | 
CCCN(C)c1cncc(CN2C(=O)c3cccc(c3)S(=O)(=O)Nc3nc(cc(-c4c(C)cccc4C)n3)OC[C@H]2CC(C)(C)C)n1 [Compound 1694] | +++ (+++ is >60+) |  | 
CCN(C)c1cncc(CN2C(=O)c3cccc(c3)S(=O)(=O)Nc3nc(cc(-c4c(C)cccc4C)n3)OC[C@H]2CC(C)(C)C)n1 [Compound 1695] | +++ (+++ is >60+) |  | 
Cc1cccc(C)c1-c1cc2nc(n1)NS(=O)(=O)c1cccc(c1)C(=O)N(Cc1cncc(N(C)CCC(C)C)n1)[C@H](CC(C)(C)C)CO2 [Compound 1696] | +++ (+++ is >60+) |  | 
CCN(CC)c1cncc(CN2C(=O)c3cccc(c3)S(=O)(=O)Nc3nc(cc(-c4c(C)cccc4C)n3)OC[C@H]2CC(C)(C)C)n1 [Compound 1697] | +++ (+++ is >60+) |  | 
CCCCN(C)c1cncc(CN2C(=O)c3cccc(c3)S(=O)(=O)Nc3nc(cc(-c4c(C)cccc4C)n3)OC[C@H]2CC(C)(C)C)n1 [Compound 1698] | +++ (+++ is >60+) |  | 
Cc1cccc(C)c1-c1cc2nc(n1)NS(=O)(=O)c1cccc(c1)C(=O)N(Cc1cncc(N3CCC3CNC(=O)OC(C)(C)C)n1)[C@H](CC(C)(C)C)CO2 (some centres unmarked) [Compound 1699] | +++ (+++ is >60+) |  | 
COc1cc(CN2C(=O)c3cccc(c3)S(=O)(=O)Nc3nc(cc(-c4c(C)cccc4C)n3)OC[C@H]2CC(C)(C)C)nc(N(C)C2CCC2)c1 [Compound 1700] | +++ (+++ is >60+) |  | 
Cc1cccc(C)c1-c1cc2nc(n1)NS(=O)(=O)c1cccc(c1)C(=O)N(Cc1cncc(N(C)C3CCC3)n1)[C@H](CC(C)(C)F)CO2 [Compound 1701] |  | < 1000 | > 60
CC[C@@H](C)[C@@H]1COc2cc(-c3c(C)cccc3C)nc(n2)NS(=O)(=O)c2cccc(c2)C(=O)N1Cc1cncc(N(C)C2CCC2)n1 [Compound 1702] |  | < 1000 | > 60
CC[C@H](C)[C@@H]1COc2cc(-c3c(C)cccc3C)nc(n2)NS(=O)(=O)c2cccc(c2)C(=O)N1Cc1cncc(N(C)C2CCC2)n1 [Compound 1703] |  | < 1000 | > 60
CC(C)c1ccccc1-c1cc2nc(n1)NS(=O)(=O)c1cccc(c1)C(=O)N(Cc1cncc(N(C)C3CCC3)n1)[C@H](CC(C)(C)C)CO2 [Compound 1704] | +++ (+++ is >60+) |  | 
Cc1ccccc1-c1cc2nc(n1)NS(=O)(=O)c1cccc(c1)C(=O)N(Cc1cncc(N(C)C3CCC3)n1)[C@H](CC(C)(C)C)CO2 [Compound 1705] | +++ (+++ is >60+) | < 1000 | > 60
COCC1CC2(CCN2c2cncc(CN3C(=O)c4cccc(c4)S(=O)(=O)Nc4nc(cc(-c5c(C)cccc5C)n4)OC[C@H]3CC(C)(C)C)n2)C1 (some centres unmarked) [Compound 1706] | +++ (+++ is >60+) |  | 
